Assay results as given in US20230278972A1, “SUBSTITUTED HALOALKYL SULFONANILIDE HERBICIDES” (FMC Corporation, priority 2020, published 2023).

Columns and labels:
Assay type in all cases: in vivo
[1] = tested on: Ryegrass, Italian (Italian ryegrass, Lolium multiflorum); test: Test A postemergence, Ryegrass, Italian; conditions: Postemergence, 0 to 100 scale (0 no effect, 100 complete control)
Summary of the method: (§1)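 Whole-plant herbicidal screen in pots of loam blended with sand. Sprays used a surfactant-containing, non-phytotoxic solvent vehicle. Timing was preemergence soil-directed at planting or postemergence at the one- to two-leaf stage (2–10 cm).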

[2] = tested on: barnyardgrass (Echinochloa crus-galli); test: Test A preemergence, barnyardgrass; conditions: Preemergence; for Plant response rating, Barnyardgrass: 125 g ai/ha, visual injury, 0 to 100 scale (0 no effect, 100 complete control), approx. 10 days; for Barnyardgrass plant response rating: 500 g ai/ha, visual injury on 0 to 100 scale (0 no effect, 100 complete control), approximately 10 days
Summary of the method: as §1

[3] = tested on: Foxtail, Giant (giant foxtail, Setaria faberi); test: Test A preemergence, Foxtail, Giant; conditions: Preemergence; for Plant response rating, Foxtail, Giant: 125 g ai/ha, visual injury, 0 to 100 scale (0 no effect, 100 complete control), approx. 10 days; for Foxtail, Giant plant response rating: 500 g ai/ha, visual injury on 0 to 100 scale (0 no effect, 100 complete control), approximately 10 days
Summary of the method: as §1

[4] = tested on: ragweed (common ragweed, Ambrosia artemisiifolia); test: Test A postemergence, ragweed; conditions: Postemergence, 0 to 100 scale (0 no effect, 100 complete control)
Summary of the method: as §1

[5] = tested on: pigweed (Amaranthus retroflexus); test: Test A postemergence, pigweed; conditions: Postemergence, 0 to 100 scale (0 no effect, 100 complete control)
Summary of the method: as §1

[6] = tested on: galium (catchweed bedstraw, Galium aparine); test: Test A postemergence, galium; conditions: Postemergence, 0 to 100 scale (0 no effect, 100 complete control)
Summary of the method: (§2)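 Preemergence: pigweed seeds in loam soil–sand blend received a directed soil spray of test chemicals in a non-phytotoxic solvent with surfactant. Postemergence: barnyardgrass, wheat and galium in pots of the same soil, 2 to 10 cm tall at one- to two-leaf stage, sprayed with the same formulation.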

[7] = tested on: Ryegrass, Italian (Italian ryegrass, Lolium multiflorum); test: Test A preemergence, Ryegrass, Italian; conditions: Preemergence; for Plant response rating, Ryegrass, Italian: 125 g ai/ha, visual injury, 0 to 100 scale (0 no effect, 100 complete control), approx. 10 days; for Ryegrass, Italian plant response rating: 500 g ai/ha, visual injury on 0 to 100 scale (0 no effect, 100 complete control), approximately 10 days
Summary of the method: as §1

[8] = tested on: kochia (Bassia scoparia); test: Test A preemergence, kochia; conditions: Preemergence; for Plant response rating, Kochia: 125 g ai/ha, visual injury, 0 to 100 scale (0 no effect, 100 complete control), approx. 10 days; for Kochia plant response rating: 500 g ai/ha, visual injury on 0 to 100 scale (0 no effect, 100 complete control), approximately 10 days
Summary of the method: as §1

[9] = tested on: ragweed (common ragweed, Ambrosia artemisiifolia); test: Test A preemergence, ragweed; conditions: Preemergence; for Plant response rating, Ragweed: 125 g ai/ha, visual injury, 0 to 100 scale (0 no effect, 100 complete control), approx. 10 days; for Ragweed plant response rating: 500 g ai/ha, visual injury on 0 to 100 scale (0 no effect, 100 complete control), approximately 10 days
Summary of the method: as §1

[10] = tested on: wheat (Triticum aestivum); test: Test A postemergence, wheat; conditions: Postemergence, 0 to 100 scale (0 no effect, 100 complete control)
Summary of the method: as §2

[11] = tested on: kochia (Bassia scoparia); test: Test A postemergence, kochia; conditions: Postemergence, 0 to 100 scale (0 no effect, 100 complete control)
Summary of the method: as §1

[12] = tested on: blackgrass (Alopecurus myosuroides); test: Test A postemergence, blackgrass; conditions: Postemergence, 0 to 100 scale (0 no effect, 100 complete control)
Summary of the method: as §1

[13] = tested on: barnyardgrass (Echinochloa crus-galli); test: Test A postemergence, barnyardgrass; conditions: Postemergence, 0 to 100 scale (0 no effect, 100 complete control)
Summary of the method: as §2

[14] = tested on: corn (Zea mays); test: Test A postemergence, corn; conditions: Postemergence, 0 to 100 scale (0 no effect, 100 complete control)
Summary of the method: as §1

[15] = tested on: Foxtail, Giant (giant foxtail, Setaria faberi); test: Test A postemergence, Foxtail, Giant; conditions: Postemergence, 0 to 100 scale (0 no effect, 100 complete control)
Summary of the method: as §1

[16] = 500 g ai/ha, visual injury approx. 10 days

SMILES	Plant response rating, Ryegrass, Italian ([1]; 125 g ai/ha)	Plant response rating, Ryegrass, Italian [1, 16]	Plant response rating, Barnyardgrass [2]	Barnyardgrass plant response rating [2]	Plant response rating, Foxtail, Giant [3]	Foxtail, Giant plant response rating [3]	Plant response rating, Ragweed ([4]; 125 g ai/ha)	Plant response rating, Ragweed [4, 16]	Plant response rating, Pigweed ([5]; 125 g ai/ha)	Plant response rating, Pigweed [5, 16]	Plant response rating, Galium ([6]; 125 g ai/ha)	Plant response rating, Galium [6, 16]	Plant response rating, Ryegrass, Italian [7]	Ryegrass, Italian plant response rating [7]	Plant response rating, Kochia [8]	Kochia plant response rating [8]	Plant response rating, Ragweed [9]	Ragweed plant response rating [9]	Plant response rating, Wheat ([10]; 125 g ai/ha)	Plant response rating, Wheat [10, 16]	also measured
Cc1cc(Cl)c(NS(=O)(=O)C(F)(F)F)cc1C(=O)N1CCOCC1C (stereo not drawn) [Compound 245]	70	80	90	100	100	100	90	90	80	90	90	90	80	100	80	80	90	90	60	60	Plant response rating, Kochia ([11]; 125 g ai/ha): 40; Plant response rating, Kochia [11, 16]: 60; Plant response rating, Blackgrass ([12]; 125 g ai/ha): 40; Plant response rating, Blackgrass [12, 16]: 60; Plant response rating, Barnyardgrass ([13]; 125 g ai/ha): 90; Plant response rating, Barnyardgrass [13, 16]: 90; Plant response rating, Corn ([14]; 125 g ai/ha): 20; Plant response rating, Corn [14, 16]: 60; Plant response rating, Foxtail, Giant ([15]; 125 g ai/ha): 50; Plant response rating, Foxtail, Giant [15, 16]: 90
CC(=O)N(c1cc(N2CCC3(CCCCC3)C2=O)c(C)cc1C)S(=O)(=O)C(F)(F)F [Compound 265]	20	70	90	100	100	100	60	80	60	90	90	90	90	100	90	90	90	90	30	60	Plant response rating, Kochia ([11]; 125 g ai/ha): 40; Plant response rating, Kochia [11, 16]: 50; Plant response rating, Blackgrass ([12]; 125 g ai/ha): 30; Plant response rating, Blackgrass [12, 16]: 20; Plant response rating, Barnyardgrass ([13]; 125 g ai/ha): 60; Plant response rating, Barnyardgrass [13, 16]: 80; Plant response rating, Corn ([14]; 125 g ai/ha): 20; Plant response rating, Corn [14, 16]: 60; Plant response rating, Foxtail, Giant ([15]; 125 g ai/ha): 0; Plant response rating, Foxtail, Giant [15, 16]: 20
COC(=O)N(c1cc(N2CCC3(CCCCC3)C2=O)c(C)cc1C)S(=O)(=O)C(F)(F)F [Compound 266]	0	0	0	40	0	20	0	10	0	0	30	90	0	0	0	0	0	0	0	0	Plant response rating, Kochia ([11]; 125 g ai/ha): 0; Plant response rating, Kochia [11, 16]: 10; Plant response rating, Blackgrass ([12]; 125 g ai/ha): 30; Plant response rating, Blackgrass [12, 16]: 0; Plant response rating, Barnyardgrass ([13]; 125 g ai/ha): 0; Plant response rating, Barnyardgrass [13, 16]: 20; Plant response rating, Corn ([14]; 125 g ai/ha): 0; Plant response rating, Corn [14, 16]: 0; Plant response rating, Foxtail, Giant ([15]; 125 g ai/ha): 0; Plant response rating, Foxtail, Giant [15, 16]: 0
